Test results reported in ChEMBL document CHEMBL5465560, “Selectivity Literature for EUbOPEN Chemogenomic Library” (2024).

What was measured:
[1] = biological target: T1, Myosin-IIIb (Homo sapiens) (UniProt Q8WXR4); settings: at 10 µM
T1 sequence (whole entry): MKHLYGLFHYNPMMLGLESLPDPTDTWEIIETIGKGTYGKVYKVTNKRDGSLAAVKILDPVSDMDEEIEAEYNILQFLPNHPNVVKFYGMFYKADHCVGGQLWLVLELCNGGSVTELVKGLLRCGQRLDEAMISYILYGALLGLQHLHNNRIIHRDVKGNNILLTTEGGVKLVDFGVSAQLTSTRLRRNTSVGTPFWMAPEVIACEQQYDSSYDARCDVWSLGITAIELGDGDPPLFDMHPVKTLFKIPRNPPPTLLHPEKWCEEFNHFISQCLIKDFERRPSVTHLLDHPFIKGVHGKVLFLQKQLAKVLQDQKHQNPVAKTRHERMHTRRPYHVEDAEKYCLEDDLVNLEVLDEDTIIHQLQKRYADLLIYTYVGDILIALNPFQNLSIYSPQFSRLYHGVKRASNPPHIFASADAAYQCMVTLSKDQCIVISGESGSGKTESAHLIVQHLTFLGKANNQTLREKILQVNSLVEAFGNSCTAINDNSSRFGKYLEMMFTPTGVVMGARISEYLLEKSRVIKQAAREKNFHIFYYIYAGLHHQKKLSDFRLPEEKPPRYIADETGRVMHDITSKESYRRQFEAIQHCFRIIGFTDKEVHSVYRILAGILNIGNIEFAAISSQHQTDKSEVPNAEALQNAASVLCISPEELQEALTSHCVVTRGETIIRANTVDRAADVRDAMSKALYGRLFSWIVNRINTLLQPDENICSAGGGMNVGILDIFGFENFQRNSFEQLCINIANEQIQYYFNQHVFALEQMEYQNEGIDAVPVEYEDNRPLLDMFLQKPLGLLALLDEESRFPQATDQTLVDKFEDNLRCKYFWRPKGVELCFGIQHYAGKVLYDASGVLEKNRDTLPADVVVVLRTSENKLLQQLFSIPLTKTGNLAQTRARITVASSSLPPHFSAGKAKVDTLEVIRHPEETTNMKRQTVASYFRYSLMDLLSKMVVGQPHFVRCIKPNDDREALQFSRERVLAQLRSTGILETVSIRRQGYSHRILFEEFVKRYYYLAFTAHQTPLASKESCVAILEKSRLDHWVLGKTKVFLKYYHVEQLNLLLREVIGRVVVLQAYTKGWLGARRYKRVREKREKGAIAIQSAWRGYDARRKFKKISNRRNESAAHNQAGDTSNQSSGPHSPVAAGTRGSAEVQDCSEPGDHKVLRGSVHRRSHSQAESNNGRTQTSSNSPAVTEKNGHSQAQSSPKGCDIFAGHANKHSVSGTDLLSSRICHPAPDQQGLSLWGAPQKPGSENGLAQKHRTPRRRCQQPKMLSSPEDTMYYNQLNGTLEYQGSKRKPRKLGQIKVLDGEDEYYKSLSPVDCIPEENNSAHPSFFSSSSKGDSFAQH

[2] = biological target: T2, Serine/threonine-protein kinase 17A (Homo sapiens) (UniProt Q9UEE5); assay: Selectivity interaction (KinomeScan (DiscoverX)) EUB0000045b STK17A
T2 sequence (whole entry): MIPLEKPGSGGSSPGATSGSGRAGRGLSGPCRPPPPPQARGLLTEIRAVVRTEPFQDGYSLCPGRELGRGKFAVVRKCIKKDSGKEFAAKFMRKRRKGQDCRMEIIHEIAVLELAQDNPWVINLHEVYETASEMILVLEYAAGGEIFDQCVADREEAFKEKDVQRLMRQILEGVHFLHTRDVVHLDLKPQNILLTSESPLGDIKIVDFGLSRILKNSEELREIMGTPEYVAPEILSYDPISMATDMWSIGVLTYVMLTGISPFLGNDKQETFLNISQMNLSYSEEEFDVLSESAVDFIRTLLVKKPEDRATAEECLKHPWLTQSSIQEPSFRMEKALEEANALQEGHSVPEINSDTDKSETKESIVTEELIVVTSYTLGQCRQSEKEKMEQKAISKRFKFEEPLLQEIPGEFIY

[3] = biological target: T3, Mitogen-activated protein kinase kinase kinase 6 (Homo sapiens) (UniProt O95382); assay: Selectivity interaction (ActivX KiNativ screen (ex vivo kinase selectivity in human PBMCs)) EUB0001619a MAP3K6; format: cell-based; settings: PBMC, at 1 µM
T3 sequence (whole entry): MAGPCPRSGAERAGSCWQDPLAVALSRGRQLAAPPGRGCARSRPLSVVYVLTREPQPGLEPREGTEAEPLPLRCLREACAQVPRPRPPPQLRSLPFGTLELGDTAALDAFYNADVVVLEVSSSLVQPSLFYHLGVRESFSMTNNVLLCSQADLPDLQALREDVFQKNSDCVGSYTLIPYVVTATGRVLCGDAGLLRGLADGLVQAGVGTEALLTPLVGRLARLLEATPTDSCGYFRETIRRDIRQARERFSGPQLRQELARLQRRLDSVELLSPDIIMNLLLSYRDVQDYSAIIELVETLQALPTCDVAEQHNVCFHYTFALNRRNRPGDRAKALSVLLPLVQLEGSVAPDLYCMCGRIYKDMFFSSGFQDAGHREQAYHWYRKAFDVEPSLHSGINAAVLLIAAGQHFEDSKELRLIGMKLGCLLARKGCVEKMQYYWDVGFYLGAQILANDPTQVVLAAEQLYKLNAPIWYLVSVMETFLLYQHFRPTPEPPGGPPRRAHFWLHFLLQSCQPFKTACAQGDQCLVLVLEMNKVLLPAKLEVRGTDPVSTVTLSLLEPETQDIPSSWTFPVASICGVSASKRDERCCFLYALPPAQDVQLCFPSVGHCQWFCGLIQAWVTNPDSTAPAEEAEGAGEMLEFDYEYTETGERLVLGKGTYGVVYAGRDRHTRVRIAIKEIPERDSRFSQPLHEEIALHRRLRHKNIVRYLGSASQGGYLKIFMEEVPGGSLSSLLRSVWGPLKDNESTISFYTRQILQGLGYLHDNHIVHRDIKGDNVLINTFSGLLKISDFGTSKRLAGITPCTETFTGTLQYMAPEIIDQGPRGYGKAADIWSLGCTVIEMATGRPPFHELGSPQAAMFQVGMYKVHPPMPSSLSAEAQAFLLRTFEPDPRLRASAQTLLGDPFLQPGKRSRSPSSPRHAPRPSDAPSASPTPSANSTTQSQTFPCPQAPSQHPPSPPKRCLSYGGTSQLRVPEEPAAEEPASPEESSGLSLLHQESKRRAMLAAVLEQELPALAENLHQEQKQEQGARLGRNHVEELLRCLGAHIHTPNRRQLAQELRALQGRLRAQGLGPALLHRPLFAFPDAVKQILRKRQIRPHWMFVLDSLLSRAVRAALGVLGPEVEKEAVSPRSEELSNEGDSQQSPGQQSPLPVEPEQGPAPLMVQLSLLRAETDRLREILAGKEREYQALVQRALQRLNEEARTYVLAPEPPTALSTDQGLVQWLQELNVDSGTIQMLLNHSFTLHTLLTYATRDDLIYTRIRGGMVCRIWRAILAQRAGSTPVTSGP

Compound `Cc1cc([C@@H](C)Nc2ccccc2C(=O)O)c2nc(N3CCOCC3)cc(=O)n2c1` [AZD-6482] has a % of control [1] of 93%.
`C=CC(=O)Nc1cc(-n2c(=O)ccc3cnc4ccc(-c5ccc(NS(C)(=O)=O)cc5)cc4c32)ccc1C` was tested, and the % of control ([2]; at 1 µM) was 100% and the % of control ([2]; at 10 µM) was 100%.
Work on `N#Cc1cccc(-c2c[nH]c3ncnc(N4CCOCC4)c23)c1` yielded a % of inhibition [3] of 21%.
